Laboratory results taken from patent US5869494A, “Uses for barbituric acid analogs” (priority 1997, dated 1999).

Tested on: Daudi human lymphoma cells
Assay: Cytotoxicity for lymphoma cells (Daudi)
Type: cell-based
Details: Homo sapiens, Daudi, 150 μg/ml, time not stated; read-out: cell kill
Procedure: In the following examples, tumor cells were treated with varying concentrations of compounds C1, C2, C4 or C5 dissolved in absolute ethanol. To limit any non-specific toxicity, the final concentration of ethanol was not allowed to exceed 0.5%. Stock concentrations of 5 mg/ml or 20 mg/ml were used. Viability of cells was determined in some studies by the trypan blue dye exclusion method. In other studies, cell viability/proliferation activity was determined by MTT assay by using a kit obtained from Promega, (Promega Corp., Madison, Wis. 53711). For this assay, a 100 μl cell suspension containing 5-10^3 monolayer cells or 1×10^5 suspension cells was placed in the wells of a 96-well microtiter plate. After overnight incubation, cells were treated with different concentrations of the test compound. Control wells received vehicle only. After 24, 48, 72 or 96 h of incubation, 50 μl of MTT dye solution was added. After 4 h of incubation at 37° C., 100 μl of solubilization/stop solution was added. After another h of incubation, cells were mixed using a multi-channel pipet and the absorption of the dye color was recorded at 570 nm using a plate reading absorption spectrophotometer.
The viability of the cells was
Compounds C4 and C5 were also tested for toxicity against human lymphoma Daudi cells.

O=C1CC(=O)NC(=S)N1 [Compound C4]
cytotoxicity at 150 µg/mL: < 20%

CN1C(=O)CC(=O)N(C)C1=S [Compound C5]
cytotoxicity at 150 µg/mL: < 20%
